Where two headings read alike, the source gives them in different places.
Key:
[1] = system: patients having melanoma with NRAS mutation and solid tumors with BRAF V600 and non-V600 mutants; conditions: 600 mg twice a day; cited from earlier work
ERK2 kinase = ERK2 kinase (Homo sapiens (Human), UniProt P28482); assay: In vitro enzyme activity assay, ERK2 kinase (Z'-LYTE); assay type: biochemical
Description: Half inhibitory activity of the compounds of the invention against ERK2 kinase (IC50 value) was determined in this Example.
• Enzyme: extracellular signal-regulated kinase ERK2 kinase (PV3595, Invitrogen) • Kit: Z′-LYTE® Protein Kinase Assay Kit-Ser/Thr 3 Peptide (PV3176, Invitrogen) • Kit components: The substrate Z′-LYTE™ Ser/Thr 3 Peptide (PV3200) • The phosphorylation substrate Z′-LYTE™ Ser/Thr 3 Phospho-peptide (PV3215) • 5× kinase buffer: 250 mM HEPES (pH 7.5), 50 mM MgCl2, • 5 mM EGTA, 0.05% BRIJ-35 (PV3189, Invitrogen) • ATP (PV3227, Invitrogen) • Development Reagent A (PV3295, Invitrogen) • Development Buffer (P3127, Invitrogen) • Stop Reagent (P3094, Invitrogen) • Microplate reader: The multil-mode microplate reader PerkinElmer EnVision® • Microplate: black shallow 384-well microplate (6008269, PerkinElmer) (2). Assay Protocol:
The substrate Z′-LYTE™ Ser/Thr 3 Peptide, the phosphorylation substrate Z′-LYTE™ Ser/Thr 3 Phospho-peptide, 1× kinase buffer (5× kinase buffer was diluted with ultra pure water by five times), ATP, Development Reagent A, Development Buffer, Stop Reagent were balanced to room temperature for use. The screening concentrations for detecting the effect of the compounds of the invention on the ERK kinase activity were seven 3-fold serial dilutions starting from 1 μM (from 0.2 μM for the positive drug control) using 4% DMSO as co-solvent. 5 μL enzyme system (50 mM HEPES pH 7.5, 1 mM EGTA, 10 mM MgCl2, 0.01% Brij-35, 4 uM substrate, 0.8 ng/μL enzyme), 2.5 μL Compound, 2.5 μL 400 μM ATP were added into 384 well microplate, followed by incubation at room temperature for 60 min in the dark. After the reaction was completed, 5 μl the developing agent (Development Reagent A) diluted with the developing buffer (Development Buffer) was added to all reaction wells, followed by incubation at the room temperature for 60 min in the dark. 5 μL the terminating agent was added to each well to terminate the reaction. The fluorescence was determined using the multil-mode microplate reader PerkinElmer EnVision® (excitation wavelength 400 nm, emission wavelength 460 nm and 528 nm).
The inhibition rate of each well was calculated from 100% phosphorylation substrate well and 0% phosphorylation substrate well using the data analysis method below: phosphorylation %=1−{(emission rate×F100%−C100%)/[C0%−C100%+emission rate×(F100%−F0%)]}×100 inhibition %=100×(1−phosphorylation % of the test compound well/phosphorylation % of the 0% inhibition control) • wherein: • emission rate=fluorescence emission of the sample at 445 nm/fluorescence emission of the sample at 520 nm • F100%=the average fluorescence emission of the control well of 100% phosphorylation substrate at 520 nm • F0%=the average fluorescence emission of the control well of 0% phosphorylation substrate at 520 nm • C100%=the average fluorescence emission of the control well of 100% phosphorylation substrate at 445 nm • C0%=the average fluorescence emission of the control well of 0% phosphorylation substrate at 445 nm
Tests were carried out in duplicate. IC50 values were calculated from the inhibition of the kinase by the test compounds at a range of different concentrations.

[2] = class symbols, read-out: ERK2 IC50
[3] = read-out: IC50 against ERK2 kinase

Chain of ERK2 kinase (P28482 whole entry): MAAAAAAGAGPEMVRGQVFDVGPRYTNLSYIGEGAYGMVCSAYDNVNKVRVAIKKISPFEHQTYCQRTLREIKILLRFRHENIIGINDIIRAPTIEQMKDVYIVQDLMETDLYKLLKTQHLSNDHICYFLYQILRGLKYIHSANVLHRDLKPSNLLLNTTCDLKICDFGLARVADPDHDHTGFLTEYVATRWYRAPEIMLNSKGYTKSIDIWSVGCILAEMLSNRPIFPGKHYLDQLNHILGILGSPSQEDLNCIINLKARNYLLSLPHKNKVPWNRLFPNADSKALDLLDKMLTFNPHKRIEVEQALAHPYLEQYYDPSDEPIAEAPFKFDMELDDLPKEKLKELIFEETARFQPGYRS

| IC50 (ERK2 kinase; [2]) [nM] | SMILES | further results |
| --- | --- | --- |
|  | CC(C)Nc1cc(-c2c[nH]c(C(=O)N[C@H](CO)c3cccc(Cl)c3)c2)c(Cl)cn1 [BVD-523, Ulixertinib] | efficacy in patients [1]: lasting efficacy; safety in patients [1]: acceptable safety |
| 10 to 100 | Cn1nccc1Nc1nccc(-c2cc(F)c3c(c2)CCN3C(=O)Cc2ccncc2Cl)n1 [Example P37, 2-(3-chloropyridin-4-yl)-1-(7-fluoro-5-(2-((1-methyl-1H-pyrazol-5-yl)amino)pyrimidin-4-yl)indolin-1-yl)ethan-1-one] |  |
| 10 to 100 | Cn1nccc1Nc1nccc(-c2cc(F)c3c(c2)CCN3C(=O)Cc2cc(F)ccc2Cl)n1 [Example P38, 2-(2-chloro-5-fluorophenyl)-1-(7-fluoro-5-(2-((1-methyl-1H-pyrazol-5-yl)amino)pyrimidin-4-yl)indolin-1-yl)ethan-1-one] |  |
| 100 to 1000 | Cn1nccc1Nc1nccc(-c2cc(F)c3c(c2)CCN3C(=O)Cc2cc(F)ccc2F)n1 [Example P39, 2-(2,5-difluorophenyl)-1-(7-fluoro-5-(2-((1-methyl-1H-pyrazol-5-yl)amino)pyrimidin-4-yl)indolin-1-yl)ethan-1-one] |  |
| 10 to 100 | O=C(Cc1cccnc1Cl)N1CCc2cc(-c3ccnc(N[C@H]4C[C@@H](O)C4)c3)cc(F)c21 [Example P40] |  |
|  | C[C@H]1Cc2cc(-c3ccnc(Nc4ccnn4C)c3)cc(F)c2N1C(=O)Cc1cccnc1Cl [Example P42] | IC50 (ERK2 kinase; [3]): 2.7 nM |
| 10 to 100 | Cn1nccc1Nc1cc(-c2cc(F)c3c(c2)CCN3C(=O)Cc2cccnc2Cl)ncn1 [Example P44, 2-(2-chloropyridin-3-yl)-1-(7-fluoro-5-(6-((1-methyl-1H-pyrazol-5-yl)amino)pyrimidin-4-yl)indolin-1-yl)ethan-1-one] |  |
| ≤ 10 | Cc1ncccc1CC(=O)N1CCc2cc(-c3ccnc(Nc4ccnn4C)c3)cc(F)c21 [Example P45, 1-(7-fluoro-5-(2-((1-methyl-1H-pyrazol-5-yl)amino)pyridin-4-yl)indolin-1-yl)-2-(2-methylpyridin-3-yl)ethan-1-one] |  |
| ≤ 10 | [2H]C([2H])([2H])n1nccc1Nc1cc(-c2cc(F)c3c(c2)CCN3C(=O)Cc2cccnc2Cl)ccn1 [Example P46, 2-(2-chloropyridin-3-yl)-1-(7-fluoro-5-(2-((1-(deuteriomethyl)-1H-pyrazol-5-yl)amino)pyridin-4-yl)indolin-1-yl)ethan-1-one] |  |
| ≤ 10 | Cc1cnc(Nc2ccnn2C)nc1-c1cc(F)c2c(c1)CCN2C(=O)Cc1cccnc1Cl [Example P47, 2-(2-chloropyridin-3-yl)-1-(7-fluoro-5-(5-methyl-2-((1-methyl-1H-pyrazol-5-yl)amino)pyrimidin-4-yl)indolin-1-yl)ethan-1-one] |  |
| ≤ 10 | Cc1cnc(Nc2ccnn2C)nc1-c1cc(F)c2c(c1)CC(C)N2C(=O)Cc1cccnc1Cl (stereo not shown) [Example P48, 2-(2-chloropyridin-3-yl)-1-(7-fluoro-2-methyl-5-(5-methyl-2-((1-methyl-1H-pyrazol-5-yl)amino)pyrimidin-4-yl)indolin-1-yl)ethan-1-one] |  |
| ≤ 10 | COCC1Cc2cc(-c3nc(Nc4ccnn4C)ncc3C)cc(F)c2N1C(=O)Cc1cccnc1Cl (stereo not shown) [Example P49, 2-(2-chloropyridin-3-yl)-1-(7-fluoro-2-(methoxymethyl)-5-(5-methyl-2-((1-methyl-1H-pyrazol-5-yl)amino)pyrimidin-4-yl)indolin-1-yl)ethan-1-one] |  |
| 100 to 1000 | Cn1nccc1Nc1nccc(-c2cc(F)c3c(c2F)CCN3C(=O)Cc2cccnc2Cl)n1 [Example P50, 2-(2-chloropyridin-3-yl)-1-(4,7-difluoro-5-(2-((1-methyl-1H-pyrazol-5-yl)amino)pyrimidin-4-yl)indolin-1-yl)ethan-1-one] |  |
| 10 to 100 | Cn1nccc1Nc1nccc(-c2cc(F)c3c(c2)CCN3C(=O)Cc2cccc(F)c2Cl)n1 [Example P54, 2-(2-chloro-3-fluorophenyl)-1-(7-fluoro-5-(2-((1-methyl-1H-pyrazol-5-yl)amino)pyrimidin-4-yl)indolin-1-yl)ethan-1-one] |  |
| 10 to 100 | Cn1nccc1Nc1cc(-c2cc(F)c3c(c2)CCN3C(=O)CCc2cccnc2Cl)ccn1 [Example P55, 3-(2-chloropyridin-3-yl)-1-(7-fluoro-5-(2-((1-methyl-1H-pyrazol-5-yl)amino)pyridin-4-yl)indolin-1-yl)propan-1-one] |  |
| 10 to 100 | Cn1nccc1Nc1nccc(-c2cc(F)c3c(c2)CCN3C(=O)Cc2cnccc2Cl)n1 [Example P56, 2-(4-chloropyridin-3-yl)-1-(7-fluoro-5-(2-((1-methyl-1H-pyrazol-5-yl)amino)pyrimidin-4-yl)indolin-1-yl)ethan-1-one] |  |
| 100 to 1000 | Cn1nccc1Nc1cc(-c2cc(F)c3c(c2)CCN3C(=O)Cc2cccnc2C2CCOCC2)ccn1 [Example P57, 1-(7-fluoro-5-(2-((1-methyl-1H-pyrazol-5-yl)amino)pyridin-4-yl)indolin-1-yl)-2-(2-(tetrahydro-2H-pyran-4-yl)pyridin-3-yl)ethan-1-one] |  |
| ≤ 10 | COCC1Cc2cc(-c3ccnc(Nc4ccnn4C)c3)cc(F)c2N1C(=O)Cc1cccnc1Cl (stereo not shown) [Example P58, 2-(2-chloropyridin-3-yl)-1-(7-fluoro-2-(methoxymethyl)-5-(2-((1-methyl-1H-pyrazol-5-yl)amino)pyridin-4-yl)indolin-1-yl)ethan-1-one] |  |
|  | CC1CN(C(=O)Cc2cccnc2Cl)c2c(F)cc(-c3ccnc(Nc4ccnn4C)c3)cc21 (stereo not shown) [Example P59, 2-(2-chloropyridin-3-yl)-1-(7-fluoro-3-methyl-5-(2-((1-methyl-1H-pyrazol-5-yl)amino)pyridin-4-yl)indolin-1-yl)ethan-1-one] | IC50 (ERK2 kinase; [3]): 4.8 nM |
|  | Cn1nccc1Nc1cc(-c2cc(F)c3c(c2)CCN3C(=O)C(O)c2cccnc2Cl)ccn1 (stereo not shown) [Example P60, 2-(2-chloropyridin-3-yl)-1-(7-fluoro-5-(2-((1-methyl-1H-pyrazol-5-yl)amino)pyridin-4-yl)indolin-1-yl)-2-hydroxylethan-1-one] | IC50 (ERK2 kinase; [3]): 10 nM |
| 10 to 100 | O=C(Cc1cccnc1Cl)N1CCc2cc(-c3ccnc(NC4CC4)c3)cc(F)c21 [Example P61, 2-(2-chloropyridin-3-yl)-1-(5-(2-(cyclopropylamino)pyridin-4-yl)-7-fluoroindolin-1-yl)ethan-1-one] |  |

Reference: patent US11465984B2, “Compound having ERK kinase inhibitory activity and use thereof” (SHANGHAI HAIHE PHARMACEUTICAL CO., LTD., priority 2017, dated 2022)
